{"source": "ChEMBL document CHEMBL4680251", "about": "“Discovery of a 2-pyridinyl urea-containing compound YD57 as a potent inhibitor of apoptosis signal-regulating kinase 1 (ASK1)” (Eur J Med Chem, 2020)", "key": {"[1]": {"test_system": "HepG2", "test": "Induction of cell cycle arrest in human HepG2 cells assessed as accumulation at S phase at 0.5 uM incubated for 24 hrs by propidium iodide staining based flow cytometry (reference value: 33.27%)", "format": "functional"}, "[2]": {"test_system": "HepG2", "test": "Induction of cell cycle arrest in human HepG2 cells assessed as accumulation at S phase at 1 uM incubated for 24 hrs by propidium iodide staining based flow cytometry (reference value: 33.27%)", "format": "functional"}, "[3]": {"test_system": "HepG2", "test": "Induction of cell cycle arrest in human HepG2 cells assessed as accumulation at G2/M phase at 0.5 uM incubated for 24 hrs by propidium iodide staining based flow cytometry (reference value: 33.49%)", "format": "functional"}, "[4]": {"test_system": "HepG2", "test": "Induction of cell cycle arrest in human HepG2 cells assessed as accumulation at S phase at 4 uM incubated for 24 hrs by propidium iodide staining based flow cytometry (reference value: 33.27%)", "format": "functional"}, "[5]": {"biological_target": "Non-receptor tyrosine-protein kinase TYK2 (Homo sapiens, UniProt P29597)", "sequence (P29597 whole entry)": "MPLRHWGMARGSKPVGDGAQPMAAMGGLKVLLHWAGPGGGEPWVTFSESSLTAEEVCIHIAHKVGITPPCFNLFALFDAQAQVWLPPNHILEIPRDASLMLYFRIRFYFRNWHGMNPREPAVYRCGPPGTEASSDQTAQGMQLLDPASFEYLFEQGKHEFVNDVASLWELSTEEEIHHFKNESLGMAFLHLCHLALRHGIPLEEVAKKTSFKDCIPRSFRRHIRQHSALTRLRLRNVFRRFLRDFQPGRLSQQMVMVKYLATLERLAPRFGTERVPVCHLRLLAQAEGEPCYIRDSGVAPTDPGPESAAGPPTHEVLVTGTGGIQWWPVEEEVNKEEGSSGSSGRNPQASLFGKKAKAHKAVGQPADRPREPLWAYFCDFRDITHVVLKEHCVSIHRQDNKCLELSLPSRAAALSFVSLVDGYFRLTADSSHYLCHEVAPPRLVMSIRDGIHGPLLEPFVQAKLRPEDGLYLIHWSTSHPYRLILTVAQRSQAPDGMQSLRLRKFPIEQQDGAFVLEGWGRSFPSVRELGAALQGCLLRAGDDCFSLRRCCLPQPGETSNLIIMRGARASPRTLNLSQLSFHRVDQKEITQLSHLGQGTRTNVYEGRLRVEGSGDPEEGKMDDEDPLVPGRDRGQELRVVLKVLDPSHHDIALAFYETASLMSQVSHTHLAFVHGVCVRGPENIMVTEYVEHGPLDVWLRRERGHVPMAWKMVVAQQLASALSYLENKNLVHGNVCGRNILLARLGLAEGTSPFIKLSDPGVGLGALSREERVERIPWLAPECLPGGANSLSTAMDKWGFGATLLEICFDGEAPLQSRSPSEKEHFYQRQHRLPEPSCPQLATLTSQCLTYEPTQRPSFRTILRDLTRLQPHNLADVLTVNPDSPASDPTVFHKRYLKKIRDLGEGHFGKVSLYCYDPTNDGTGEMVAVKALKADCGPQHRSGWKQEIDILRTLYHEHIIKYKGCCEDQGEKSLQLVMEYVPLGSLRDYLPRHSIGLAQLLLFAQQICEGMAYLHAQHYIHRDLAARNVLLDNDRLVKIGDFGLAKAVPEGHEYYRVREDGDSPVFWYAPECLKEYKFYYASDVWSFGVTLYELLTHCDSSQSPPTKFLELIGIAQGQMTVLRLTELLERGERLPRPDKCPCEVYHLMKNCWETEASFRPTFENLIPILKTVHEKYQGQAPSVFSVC", "test": "Inhibition of human recombinant TYK2 (875 to end residues) using GGMEDIYFEFMGG as substrate incubated for 40 mins in presence of [gamma-33ATP] by radiometric scintillation counting analysis"}, "[6]": {"test_system": "HepG2", "test": "Induction of cell cycle arrest in human HepG2 cells assessed as accumulation at G2/M phase at 16 uM incubated for 24 hrs by propidium iodide staining based flow cytometry (reference value: 33.49%)", "format": "functional"}, "[7]": {"test_system": "HepG2", "test": "Induction of cell cycle arrest in human HepG2 cells assessed as accumulation at G0/G1 phase at 4 uM incubated for 24 hrs by propidium iodide staining based flow cytometry (reference value: 38.34%)", "format": "functional"}, "[8]": {"test_system": "HepG2", "test": "Induction of cell cycle arrest in human HepG2 cells assessed as accumulation at G2/M phase at 4 uM incubated for 24 hrs by propidium iodide staining based flow cytometry (reference value: 33.49%)", "format": "functional"}, "[9]": {"biological_target": "Glycogen synthase kinase-3 beta (Homo sapiens, UniProt P49841)", "sequence (P49841 whole entry)": "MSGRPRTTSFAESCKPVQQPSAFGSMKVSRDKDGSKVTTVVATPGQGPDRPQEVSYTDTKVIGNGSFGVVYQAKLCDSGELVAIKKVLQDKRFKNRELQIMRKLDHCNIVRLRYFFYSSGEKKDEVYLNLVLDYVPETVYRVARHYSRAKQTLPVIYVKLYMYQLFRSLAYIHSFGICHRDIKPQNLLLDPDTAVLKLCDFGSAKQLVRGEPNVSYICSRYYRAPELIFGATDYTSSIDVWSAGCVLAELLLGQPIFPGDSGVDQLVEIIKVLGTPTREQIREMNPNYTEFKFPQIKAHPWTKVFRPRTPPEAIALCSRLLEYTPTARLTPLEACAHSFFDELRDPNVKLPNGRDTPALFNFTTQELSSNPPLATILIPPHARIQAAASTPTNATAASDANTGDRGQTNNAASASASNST", "test": "Inhibition of human recombinant GSK3 beta H350L mutant using YRRAAVPPSPSLSR as substrate incubated for 40 mins in presence of [gamma-33ATP] by radiometric scintillation counting analysis"}, "[10]": {"test_system": "HepG2", "test": "Induction of cell cycle arrest in human HepG2 cells assessed as accumulation at G2/M phase at 1 uM incubated for 24 hrs by propidium iodide staining based flow cytometry (reference value: 33.49%)", "format": "functional"}, "[11]": {"test_system": "HepG2", "test": "Induction of cell cycle arrest in human HepG2 cells assessed as accumulation at G0/G1 phase at 8 uM incubated for 24 hrs by propidium iodide staining based flow cytometry (reference value: 38.34%)", "format": "functional"}, "[12]": {"biological_target": "T1, Mitogen-activated protein kinase kinase kinase 5 (Homo sapiens, UniProt Q99683)", "T1 sequence (Q99683 whole entry)": "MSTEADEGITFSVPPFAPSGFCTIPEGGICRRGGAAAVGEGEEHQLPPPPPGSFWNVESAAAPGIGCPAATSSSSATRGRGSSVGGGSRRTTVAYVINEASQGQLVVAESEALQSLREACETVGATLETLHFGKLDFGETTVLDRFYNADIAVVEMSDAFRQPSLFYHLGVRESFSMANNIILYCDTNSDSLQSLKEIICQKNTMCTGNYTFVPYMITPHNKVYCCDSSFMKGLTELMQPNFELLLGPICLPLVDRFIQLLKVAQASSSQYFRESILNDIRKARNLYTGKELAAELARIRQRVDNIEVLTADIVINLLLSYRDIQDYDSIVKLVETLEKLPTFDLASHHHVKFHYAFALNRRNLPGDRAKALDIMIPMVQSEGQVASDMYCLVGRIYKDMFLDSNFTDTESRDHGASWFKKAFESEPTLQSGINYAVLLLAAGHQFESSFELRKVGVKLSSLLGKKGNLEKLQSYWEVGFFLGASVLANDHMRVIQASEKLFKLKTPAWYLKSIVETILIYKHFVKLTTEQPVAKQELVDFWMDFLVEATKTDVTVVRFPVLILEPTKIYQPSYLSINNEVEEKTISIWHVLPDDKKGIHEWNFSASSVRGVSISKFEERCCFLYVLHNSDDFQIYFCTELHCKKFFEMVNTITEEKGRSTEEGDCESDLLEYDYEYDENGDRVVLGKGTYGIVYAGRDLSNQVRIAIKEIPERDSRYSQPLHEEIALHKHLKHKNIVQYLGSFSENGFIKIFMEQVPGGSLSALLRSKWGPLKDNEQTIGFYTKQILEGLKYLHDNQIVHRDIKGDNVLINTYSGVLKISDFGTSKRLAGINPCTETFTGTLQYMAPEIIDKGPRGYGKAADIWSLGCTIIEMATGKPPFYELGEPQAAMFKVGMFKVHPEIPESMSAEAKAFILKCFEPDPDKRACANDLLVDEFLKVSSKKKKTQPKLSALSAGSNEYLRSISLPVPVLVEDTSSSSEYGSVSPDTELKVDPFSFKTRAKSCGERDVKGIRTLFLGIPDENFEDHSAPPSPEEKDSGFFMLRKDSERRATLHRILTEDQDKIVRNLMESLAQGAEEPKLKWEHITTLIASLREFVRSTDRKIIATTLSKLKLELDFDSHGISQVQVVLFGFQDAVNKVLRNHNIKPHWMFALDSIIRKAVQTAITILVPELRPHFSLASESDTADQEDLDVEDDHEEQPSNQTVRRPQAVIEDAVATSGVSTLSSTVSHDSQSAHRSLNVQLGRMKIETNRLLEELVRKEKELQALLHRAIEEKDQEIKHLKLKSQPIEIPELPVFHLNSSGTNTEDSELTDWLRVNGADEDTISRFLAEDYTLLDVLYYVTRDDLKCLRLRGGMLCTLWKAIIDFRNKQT", "test": "Inhibition of ASK1 (unknown origin)"}, "[13]": {"test_system": "HepG2", "test": "Induction of cell cycle arrest in human HepG2 cells assessed as accumulation at G0/G1 phase at 0.5 uM incubated for 24 hrs by propidium iodide staining based flow cytometry (reference value: 38.34%)", "format": "functional"}, "[14]": {"test_system": "HepG2", "test": "Induction of cell cycle arrest in human HepG2 cells assessed as accumulation at S phase at 2 uM incubated for 24 hrs by propidium iodide staining based flow cytometry (reference value: 33.27%)", "format": "functional"}, "[15]": {"test_system": "HepG2", "test": "Induction of cell cycle arrest in human HepG2 cells assessed as accumulation at G2/M phase at 2 uM incubated for 24 hrs by propidium iodide staining based flow cytometry (reference value: 33.49%)", "format": "functional"}, "[16]": {"test_system": "HepG2", "test": "Induction of cell cycle arrest in human HepG2 cells assessed as accumulation at G0/G1 phase at 16 uM incubated for 24 hrs by propidium iodide staining based flow cytometry (reference value: 38.34%)", "format": "functional"}, "[17]": {"test_system": "HepG2", "test": "Induction of cell cycle arrest in human HepG2 cells assessed as accumulation at S phase at 16 uM incubated for 24 hrs by propidium iodide staining based flow cytometry (reference value: 33.27%)", "format": "functional"}, "[18]": {"test_system": "HepG2", "test": "Induction of cell cycle arrest in human HepG2 cells assessed as accumulation at G2/M phase at 8 uM incubated for 24 hrs by propidium iodide staining based flow cytometry (reference value: 33.49%)", "format": "functional"}, "[19]": {"test_system": "HepG2", "test": "Induction of cell cycle arrest in human HepG2 cells assessed as accumulation at S phase at 8 uM incubated for 24 hrs by propidium iodide staining based flow cytometry (reference value: 33.27%)", "format": "functional"}}}
{"compound": "C[C@H](CO)n1cnnc1-c1cccc(NC(=O)Nc2cc3ccccn3n2)n1", "values": [{"measurement": "Activity", "setting": "[1]", "result": 31.94, "unit": "%"}, {"measurement": "Activity", "setting": "[2]", "result": 11.7, "unit": "%"}, {"measurement": "Activity", "setting": "[3]", "result": 27.33, "unit": "%"}, {"measurement": "Activity", "setting": "[4]", "result": 7.9, "unit": "%"}, {"measurement": "IC50", "setting": "[5]", "result": 1690, "unit": "nM"}, {"measurement": "Activity", "setting": "[6]", "result": 32.64, "unit": "%"}, {"measurement": "Activity", "setting": "[7]", "result": 66.33, "unit": "%"}, {"measurement": "Activity", "setting": "[8]", "result": 34.25, "unit": "%"}, {"measurement": "IC50", "setting": "[9]", "result": 283, "unit": "nM"}, {"measurement": "Activity", "setting": "[10]", "result": 30.59, "unit": "%"}, {"measurement": "Activity", "setting": "[11]", "result": 66.65, "unit": "%"}, {"measurement": "IC50", "setting": "[12]", "result": 33.8, "unit": "nM"}, {"measurement": "Activity", "setting": "[13]", "result": 46.22, "unit": "%"}, {"measurement": "Activity", "setting": "[14]", "result": 7.15, "unit": "%"}, {"measurement": "Activity", "setting": "[15]", "result": 34.32, "unit": "%"}, {"measurement": "Activity", "setting": "[16]", "result": 69.77, "unit": "%"}, {"measurement": "Activity", "setting": "[17]", "result": 9.63, "unit": "%"}, {"measurement": "Activity", "setting": "[18]", "result": 35.02, "unit": "%"}, {"measurement": "Activity", "setting": "[19]", "result": 8.95, "unit": "%"}]}
